# From US6160008A, “Pharmaceutical compositions comprising S-alkylisothiouronium derivatives” (priority 1996, dated 2000)
# Entries after “also recorded” stand apart in the source; their conditions may differ.
# Tests used:
# [1] = test system: cardiovascular system of dogs; assay: Effect on the cardiovascular system of dogs (FIGS. 11-13); format: in vivo; conditions: i.v.
# Description: In the following tests, the effect of S-ethylisothiouronium diethylphosphate was studied on the cardiovascular system of dogs. AP was measured by two methods: it was registered on the tail artery by means of a piezosensor (Ugo Bazile pressure gauge) and in the thigh artery by a catheter filled with heparin. Electrocardiogram was registered in three standard branches.
# S-ethylisothiouronium diethylphosphate was injected at doses of 1 mg/kg (n=5), 5 mg/kg (n=18), and 100 mg/kg (n=8). […] The development of a bradycardiac effect was noted which started already on the first minutes after the injection, reaching on the average 25-30% of the initial level. Maximal bradycardiac value was observed on the 30th-40th minutes after the experiment started and maintained till the 60th minute of the observation.
# Due to this fact the study was carried out separately for normotonics and hypotonics.
# [2] = Pathomorphological examination of internal organs; format: in vivo, mice, dogs; conditions: mean lethal and sublethal doses
# From the text: The disturbance to blood circulation has a reversible character and as a rule, it normalized within 7-10 days after the preparation had no longer any effect.
# [3] = test system: acid-base balance and gas composition of mixed venous blood; assay: Acid-base balance and gas composition of mixed venous blood in hemorrhagic shock (Table 7); format: in vivo, cats; conditions: 5 mg/kg i.v.; for Bicarbonate ion content (HCO3 a) / Buffer bases (BBa) / Buffer bases shift (BBa) / Carbonic acid gas tension (PaCO2): mixed venous blood
# Description: (§1) The influence of S-ethylisothiouronium diethylphosphate on the major indices of the blood acid-base state (AAS) and gas content in hemorrhagic shock was studied at a dose of 5 mg/kg. The cats were narcotized intraperitoneally with pentobarbital sodium (nembutal) at a dose of 40 mg/kg. The blood loss was caused by blood-letting from the common carotid artery in an amount of 3.2% of the animal body mass, which approximately corresponds to 45-47% of the blood circulation volume. The blood-letting was carried out during 3-5 minutes. Tension characteristics of oxygen and carbon dioxide in arterial (PaO2, PaCO2) and mixed venous (PvO2, PvCO2) blood, pHa and pH were studied by Astrup micromethod. The hemoglobin content (Hb) was determined by the cianohemoglobin method. Bicarbonate ion content /HCO3 was calculated with the help of the Severinghause ruler. Calculations were carried out on the CM-1403-02 computer in the Forhtran language program. Indices of the acid-base balance and blood gas content were studied in the initial state, on the 30th minute after acute bleeding as well as on 2nd, 10th, 30th, and 60th minute after the medicine injection. The substance was injected singly intravenously on the 30th minute after the blood-letting.
# (§2) In the test group (n=6), S-ethylisothiouronium diethylphosphate was injected at a dose of 5 mg/kg.
# [4] = test system: acid-base balance and gas composition of arterial blood; assay: Acid-base balance and gas composition of arterial blood in hemorrhagic shock (Table 6); format: in vivo, cats
# Description: as §1, §2
# [5] = test system: acute arterial hypotension, caused by the hexamethonium administration; assay: Acute arterial hypotension caused by hexamethonium (Table 5); format: in vivo, cats; conditions: for AP / HF: 5 mg/kg i.v. after hexamethonium 10 mg/kg
# Description: The influence of S-ethylisothiouronium diethylphosphate on the background of arterial hypotension caused by a known ganglion blocker-hexamethonium has been studied in cats. Hexamethonium was injected intra- venously at a dose of 10 mg/kg. Vagus and schiatic nerve stimulation was carried out by electrical pulsator with the above-threshold rectangular pulse current having a duration of 1 msec, irritation time of 10 sec, and frequency of 20 pulses/sec (peripheral section of the vagus nerve), and frequency of 300 pulses/sec (central end of the schiatic nerve).
# arterial blood pressure = assay: Clinical testing under spinal epidural anesthesia; format: in vivo, patients; conditions: urological operations
# Description: This experiment was conducted at the General Anesthesia Department of the First Republican Hospital of Moldova. The goal of this clinical study was to estimate the ability of Difetur to act as a hypertensive drug, compared to the known adrenergic drug--ephedrine. The experiments were performed on one hundred patients, underwent urological operations under spinal epidural anesthesia, their age being between 20 and 80. The following findings are presented in view of Difetur: […]
# [6] = 5 mg/kg i.v., 10 min after injection
# [7] = 5 mg/kg i.v., 30 min after injection
# [8] = 5 mg/kg i.v., 60 min after injection
structure (smiles),measurement,setting,value
CCSC(=N)N [S-ethylisothiouronium diethylphosphate],Electrocardiogram,[1]; all doses,did not reveal any pathological changes
same,"Bradycardiac effect, relative to the initial level",[1]; dogs,25-30%
same,Optimal dose,[1]; dogs,5 to 10 mg/kg
same,Hypertensive effect in words,"[1]; dogs, all doses",does not cause secondary hypotension; also recorded: greater in hypotensive than in normotensive animals; also recorded: pronounced hypertensive effect at all the doses used
same,Hypertensive effect in words,"[1]; dogs, all doses, listed as S-ethylisothiouroniumdiethylphosphate",the hypertensive reaction in dogs with low arterial pressure is stronger and more prolonged
same,Pathomorphological findings,[2],"moderately pronounced signs of hemodynamic disturbance; also recorded: No prounced inflammatory, distrophic or necrobiotic changes of internal organs were observed; also recorded: In some cases, signs of compensatory-adaptation reactions of liver"
same,Time to normalization of blood circulation disturbance,[2],7 to 10 days
same,Oxygen tension (PvO2),[3]; 10 min,41.866 ± 11.242
same,pHv,[3]; 10 min after injection,7.252 ± 0.011
same,Oxygen tension (PvO2),[3]; 30 min,40.533 ± 11.332
same,pHv,[3]; 30 min after injection,7.222 ± 0.016
same,Oxygen tension (PvO2),[3]; 60 min,27.783 ± 4.824
same,pHv,[3]; 60 min after injection,7.150 ± 0.130
same,Bicarbonate ion content (HCO3 a),[3]; 10 min,17.116 ± 1.576 mmol/L
same,Buffer bases (BBa),[3]; 10 min,34.500 ± 2.342 mmol/L
same,Buffer bases shift (BBa),[3]; 10 min,-8.500 ± 1.491 mmol/L
same,Carbonic acid gas tension (PaCO2),[3]; 10 min,40.516 ± 4.340 mm Hg
same,Bicarbonate ion content (HCO3 a),[3]; 30 min,16.150 ± 1.951 mmol/L
same,Buffer bases (BBa),[3]; 30 min,32.266 ± 3.254 mmol/L
same,Buffer bases shift (BBa),[3]; 30 min,-9.966 ± 1.388 mmol/L
same,Carbonic acid gas tension (PaCO2),[3]; 30 min,40.350 ± 4.611 mm Hg
same,Bicarbonate ion content (HCO3 a),[3]; 60 min,17.800 ± 2.162 mmol/L
same,Buffer bases (BBa),[3]; 60 min,33.833 ± 3.943 mmol/L
same,Buffer bases shift (BBa),[3]; 60 min,-11.266 ± 2.569 mmol/L
same,Carbonic acid gas tension (PaCO2),[3]; 60 min,55.533 ± 5.049 mm Hg
same,"Bicarbonate ion content increase, arterial blood","[4]; 5 mg/kg i.v., 10th minute",5%
same,"Bicarbonate ion content increase, arterial blood","[4]; 5 mg/kg i.v., 30th minute",16%
same,Bicarbonate ion content (HCO3 a),[4]; [6],15.583 ± 1.333 mmol/L
same,Buffer bases (Bba),[4]; [6],34.150 ± 1.364 mmol/L
same,Buffer bases shift (Bea),[4]; [6],-7.866 ± 1.095 mmol/L
same,Carbonic acid gas tension (PaCO2),[4]; [6],28.616 ± 2.858 mm Hg
same,Oxygen tension (PaO2),[4]; [6],94.483 ± 6.012
same,pHa,[4]; [6],7.252±0.018
same,Decrease of partial pressure of carbon dioxide (arterial and venous blood),"[4]; 5 mg/kg i.v., 10 minute, vs 30th minute after blood letting",9%
same,Bicarbonate ion content (HCO3 a),[4]; [7],17.083 ± 1.065 mmol/L
same,Buffer bases (Bba),[4]; [7],34.966 ± 3.534 mmol/L
same,Buffer bases shift (Bea),[4]; [7],-8.016 ± 1.436 mmol/L
same,Carbonic acid gas tension (PaCO2),[4]; [7],31.083 ± 1.933 mm Hg
same,Oxygen tension (PaO2),[4]; [7],95.466 ± 7.144
same,pHa,[4]; [7],7.310±0.064
same,Bicarbonate ion content (HCO3 a),[4]; [8],15.900 ± 3.033 mmol/L
same,Buffer bases (Bba),[4]; [8],32.733 ± 5.616 mmol/L
same,Buffer bases shift (Bea),[4]; [8],-9.450 ± 3.903 mmol/L
same,Carbonic acid gas tension (PaCO2),[4]; [8],35.217 ± 7.339 mm Hg
same,Oxygen tension (PaO2),[4]; [8],85.550 ± 6.575
same,pHa,[4]; [8],7.208 ± 0.036
same,Effect on acid-base balance and blood gases in words,"[4]; arterial blood, hemorrhagic shock","does not influence negatively the acid-base balance; also recorded: corrects the metabolic acidosis caused by the loss of blood; also recorded: it had the tendency to increase in the arterial blood, and to decrease in the venous blood"
same,AP,[5]; 2 min,152.0 ± 4.6 mm Hg
same,HF,[5]; 2 min,120.0 ± 12.0 per min.
same,AP,[5]; 15 min,147.0 ± 7.8 mm Hg
same,HF,[5]; 15 min,105.6 ± 11.6 per min.
same,AP,[5]; 30 min,146.8 ± 4.8 mm Hg
same,HF,[5]; 30 min,109.2 ± 11.1 per min.
same,AP,[5]; 60 min,143.0 ± 7.2 mm Hg
same,HF,[5]; 60 min,108.0 ± 15.8 per min.
same,AP increase,"[5]; 5 mg/kg i.v. after hexamethonium, 2nd minute",61 mm Hg
same,Effect under ganglion blockade in words,[5]; after hexamethonium,"Respiratory rate did not change; also recorded: HR changed to the direction of bradycardia, however, those changes were not statistically significant; also recorded: ganglion blocking properties are completely retained; also recorded: quickly restores the AP level after the ganglion blocker caused hypotension and maintains it for a long time"
same,Duration of hypertensive action,arterial blood pressure,40 to 60 min
same,Time until blood pressure attains the initial value,arterial blood pressure,≤ 90 min
same,Clinical safety findings,arterial blood pressure; listed as Difetur,No cases of secondary hypertension were observed; also recorded: No complications of allergic type of the blood circulation or respiration were observed
same,Effect on patient's blood pressure in words,arterial blood pressure; listed as Difetur,prevented the decrease in the patient's blood pressure; also recorded: blood pressure of the patients remained stable; also recorded: rapid and prolonged effect on arterial blood pressure
